ChEMBL document CHEMBL1914418, “Biochemical and pharmacological profiling of the pro-survival protein Bcl-xL” (Bioorg Med Chem Lett, 2011)

Key:
Bcl-2-like protein 1 [1] = target: Bcl-2-like protein 1 (Homo sapiens, UniProt Q07817, L130G); test: Displacement of BODIPY-Bak conjugated peptide from GST-tagged human Bcl-2-like protein 1 L130G mutant expressed in Escherichia coli BL21 cells at 10 uM after 3 hrs by fluorescence polarization competition assay
Bcl-2-like protein 2 = target: T1, Bcl-2-like protein 2 (Homo sapiens, UniProt Q92843); test: Displacement of BODIPY-Bak conjugated peptide from GST-tagged human wild type Bcl-W expressed in Escherichia coli BL21 cells at 10 uM after 3 hrs by fluorescence polarization competition assay
T1 sequence (Q92843 whole entry): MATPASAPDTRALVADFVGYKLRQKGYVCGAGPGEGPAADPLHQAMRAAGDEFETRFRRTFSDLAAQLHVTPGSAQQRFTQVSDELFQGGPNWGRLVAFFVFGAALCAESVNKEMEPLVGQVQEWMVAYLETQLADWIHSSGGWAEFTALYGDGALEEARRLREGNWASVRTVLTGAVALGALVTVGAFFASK

Bcl-2-like protein 1 [2] = target: Bcl-2-like protein 1 (Homo sapiens, UniProt Q07817, L130V); test: Displacement of BODIPY-Bak conjugated peptide from GST-tagged human Bcl-2-like protein 1 L130V mutant expressed in Escherichia coli BL21 cells at 10 uM after 3 hrs by fluorescence polarization competition assay
Sequence of Bcl-2-like protein 1 (Homo sapiens, UniProt Q07817, L130V) (Q07817 whole entry L130V): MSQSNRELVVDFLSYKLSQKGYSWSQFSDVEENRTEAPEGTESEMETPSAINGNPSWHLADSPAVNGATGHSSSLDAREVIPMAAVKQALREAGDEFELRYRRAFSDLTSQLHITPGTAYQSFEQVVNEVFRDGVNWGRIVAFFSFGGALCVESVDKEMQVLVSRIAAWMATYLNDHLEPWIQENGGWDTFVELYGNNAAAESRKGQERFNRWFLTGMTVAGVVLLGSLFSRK

[3] = target: Induced myeloid leukemia cell differentiation protein Mcl-1 homolog (Mus musculus, UniProt P97287); test: Displacement of BODIPY-Bak conjugated peptide from GST-tagged mouse wild type MCL1 expressed in Escherichia coli BL21 cells at 10 uM after 3 hrs by fluorescence polarization competition assay
Sequence of Induced myeloid leukemia cell differentiation protein Mcl-1 homolog (P97287 whole entry): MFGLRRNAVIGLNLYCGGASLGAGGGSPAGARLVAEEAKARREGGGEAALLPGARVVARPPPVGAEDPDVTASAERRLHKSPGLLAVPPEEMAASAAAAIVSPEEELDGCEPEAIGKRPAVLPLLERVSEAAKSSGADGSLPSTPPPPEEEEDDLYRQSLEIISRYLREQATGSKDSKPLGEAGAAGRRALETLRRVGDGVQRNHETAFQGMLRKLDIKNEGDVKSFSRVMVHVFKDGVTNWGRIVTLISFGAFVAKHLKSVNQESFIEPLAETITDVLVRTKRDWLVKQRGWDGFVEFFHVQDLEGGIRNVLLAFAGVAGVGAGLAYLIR

Bcl-2-like protein 1 [4] = target: Bcl-2-like protein 1 (Homo sapiens, UniProt Q07817); test: Displacement of BODIPY-Bak conjugated peptide from GST-tagged human Wild type Bcl-2-like protein 1 expressed in Escherichia coli BL21 cells at 10 uM after 3 hrs by fluorescence polarization competition assay
Sequence of Bcl-2-like protein 1 (Homo sapiens, UniProt Q07817) (Q07817 whole entry): as the sequence (Q07817 whole entry L130V) above, with V130L counted along it

Sequence of Bcl-2-like protein 1 (Homo sapiens, UniProt Q07817, L130G) (Q07817 whole entry L130G): as the sequence (Q07817 whole entry L130V) above, with V130G counted along it

SMILES | Ki (Bcl-2-like protein 1 [1]) [nM] | Ki (Bcl-2-like protein 2) [nM] | Ki (Bcl-2-like protein 1 [2]) [nM] | Ki [3] [nM] | Ki (Bcl-2-like protein 1 [4]) [nM]
C[C@H]1CN(c2ccc(C(=O)NS(=O)(=O)c3ccc(N[C@H](CCN(C)C)CSc4ccccc4)c([N+](=O)[O-])c3)cc2)CCN1Cc1ccccc1C(F)(F)F | 99 | 63 | < 1 | 2000 | < 1
C[C@@H]1CN(c2ccc(C(=O)NS(=O)(=O)c3ccc(N[C@H](CCN(C)C)CSc4ccccc4)c([N+](=O)[O-])c3)cc2)CCN1Cc1ccccc1C(F)(F)F | 81 | 55 | 3.7 | 1500 | 1
CC1CN(c2ccc(C(=O)NS(=O)(=O)c3ccc(N[C@H](CCN(C)C)CSc4ccccc4)c([N+](=O)[O-])c3)cc2)CC(C)N1Cc1ccccc1C(F)(F)F (stereo not given in full) | 140 | 170 | 96 | > 10000 | 68

Second part, the compound after the results:

Ki (Bcl-2-like protein 1 [1]) [nM] | Ki (Bcl-2-like protein 2) [nM] | Ki (Bcl-2-like protein 1 [2]) [nM] | Ki [3] [nM] | Ki (Bcl-2-like protein 1 [4]) [nM] | SMILES
83 | 59 | 63 | 2000 | 3.3 | CC(C)[C@H]1CN(Cc2ccccc2C(F)(F)F)CCN1c1ccc(C(=O)NS(=O)(=O)c2ccc(N[C@H](CCN(C)C)CSc3ccccc3)c([N+](=O)[O-])c2)cc1
280 | 21 | 42 | 2000 | 2.6 | CC(C)[C@@H]1CN(Cc2ccccc2C(F)(F)F)CCN1c1ccc(C(=O)NS(=O)(=O)c2ccc(N[C@H](CCN(C)C)CSc3ccccc3)c([N+](=O)[O-])c2)cc1
